Measurements reported in PubChem BioAssay (NCI).
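Exposure lasted 48 hours, with cells grown in 96-well plates and compounds tested at five concentrations. Definition used: TGI = concentration required for complete inhibition of growth.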

Experiments:
Assay in all cases: NCI-60 cell line screen, 48 h
[1] = test system: MCF7 breast
[2] = test system: MALME-3M melanoma
[3] = test system: UACC-257 melanoma
[4] = test system: DU-145 prostate
[5] = test system: M14 melanoma
[6] = test system: A498 renal
[7] = test system: HOP-92 NSCLC
[8] = test system: HOP-62 NSCLC
[9] = test system: PC-3 prostate
[10] = test system: ACHN renal
[11] = test system: MOLT-4 leukemia
[12] = test system: HCT-116 colon
[13] = test system: NCI-H460 lung
[14] = test system: UACC-62 melanoma
[15] = test system: MDA-N

Structure (SMILES) | TGI [1] [µM] | TGI [2] [µM] | TGI [3] [µM] | TGI [4] [µM] | TGI [5] [µM] | TGI [6] [µM] | TGI [7] [µM] | TGI [8] [µM] | TGI [9] [µM] | TGI [10] [µM] | TGI [11] [µM] | TGI [12] [µM] | TGI [13] [µM] | TGI [14] [µM] | TGI [15] [µM]
O=C(CCc1cccc(O)c1)NCCc1cccc(OCc2ccccc2)c1 | 40.4 | 39.2 | 34.2 | > 80 | 30.2 | > 55.2 | 33.8 | 30.6 | 31.8 | > 78.3 | 43.5 | 30.3 | 34.5 | 28.4 | 39
FC(F)(F)C1(C(F)(F)F)C2CCC3(CC(F)(F)C(F)(F)S3)C1C2 (stereo unspecified) | 84.3 | 95.1 | 74.3 | > 100 | > 100 | > 100 | – | > 100 | > 100 | 98.5 | 46.4 | 42.5 | > 100 | > 100 | > 100
COc1ccc2[nH]c3c(C)c4cnccc4c(C)c3c2c1 | 3.9 | 2.82 | > 10 | 9.93 | 2.54 | – | > 10 | 2.78 | > 10 | > 10 | > 10 | 2.5 | 3.58 | > 10 | 3.43
CCOC(=O)C(Cc1cn(S(=O)(=O)c2ccc(C)cc2)cn1)P(=O)(OCC)OCC (stereo unspecified) | > 100 | > 100 | > 100 | > 100 | > 100 | – | – | > 100 | > 100 | > 100 | > 100 | > 100 | > 100 | > 100 | > 100
Cc1cc(C)c(NS(=O)c2cccc([N+](=O)[O-])c2)c(C)c1 (stereo unspecified) | > 100 | > 100 | > 100 | > 100 | > 100 | > 100 | > 100 | > 100 | > 100 | > 100 | > 100 | – | > 100 | – | –
O=c1c2ncn(CCCl)c2n(-c2ccccc2)c(=S)n1-c1ccccc1 | > 100 | > 100 | > 100 | > 100 | > 100 | > 100 | > 100 | > 100 | > 100 | > 100 | > 100 | > 100 | > 100 | > 100 | > 100
NC(N)=NS(=O)(=O)c1ccc(NNc2c3ccccc3nc3c(C(=O)Nc4ccc(S(N)(=O)=O)cc4)cccc23)cc1 | 70.5 | > 100 | > 100 | > 100 | > 100 | > 100 | 73.8 | > 100 | > 100 | > 100 | 70.6 | > 100 | > 100 | > 100 | > 100
O=C(O)c1cc(N(Cc2ccccc2O)Cc2cc(O)ccc2O)ccc1O | > 100 | > 100 | > 100 | > 100 | > 100 | > 100 | > 100 | > 100 | > 100 | > 100 | > 100 | > 100 | > 100 | > 100 | > 100
O=C(NNC(=O)c1ccccc1Cl)c1ccccc1O | > 100 | > 100 | > 100 | > 100 | > 100 | > 100 | – | > 100 | > 100 | – | > 100 | > 100 | > 100 | > 100 | > 100
c1ccc2c3nnc(c2c1)SCCSCCCSCCS3 | > 100 | 77.3 | > 100 | > 100 | > 100 | 92.6 | 87.7 | 70.9 | > 100 | > 100 | – | > 100 | > 100 | > 100 | > 100
COC(=O)c1ccc(NCc2cc(O)ccc2O)cc1O | 21.6 | 34.7 | 30.9 | 25.3 | 31.7 | 58.8 | 29 | 24.4 | > 32.3 | 22.2 | 8.49 | 36.3 | 31.2 | 34 | 23.5
Oc1[nH]c2ccccc2c1N=NC(=S)N1CCCC1 | > 56.6 | 9.82 | 29.6 | > 100 | 8.44 | 19.2 | 39.3 | 26.2 | 57.8 | 4.55 | 5.75 | 21.5 | 9.42 | 18.2 | 38.8
CC1(C)O[C@@H](CP(c2ccccc2)c2ccccc2)[C@H](CP(c2ccccc2)c2ccccc2)O1 | – | 20.9 | 30.7 | > 100 | 22.7 | 39.1 | 27.1 | 44.6 | – | > 100 | > 100 | 20.9 | > 100 | – | 11.5
O=[N+]([O-])c1ccc(N2N=C(c3ccc4ccccc4c3O)CC2c2ccc(Cl)cc2Cl)c([N+](=O)[O-])c1 (stereo unspecified) | > 100 | > 100 | > 100 | > 100 | – | – | – | > 100 | > 100 | > 100 | 38 | > 100 | > 100 | > 100 | > 100
CC(=O)O/C=C\OC1CCCC1 | > 100 | > 100 | > 100 | > 100 | > 100 | > 100 | > 100 | > 100 | > 100 | > 100 | > 100 | – | > 100 | > 100 | > 100
O=C(/C=C/c1ccc(F)c(F)c1)OCCc1ccccc1 | > 100 | > 100 | > 100 | > 100 | > 100 | – | – | > 100 | > 100 | > 100 | > 100 | > 100 | > 100 | > 100 | > 100
